{"source": "patent US20230381205A1", "about": "“COMPOSITIONS AND METHODS FOR TREATING NEURONAL DISORDERS WITH CANNABINOIDS” (INMED PHARMACEUTICALS INC., priority 2020, published 2023)", "key": {"[1]": {"test_system": "differentiated SH-SY5Y cells", "experiment": "Confocal immunofluorescence of MAP2 and neurite morphology", "format": "cell-based, human", "settings": "FIG. 16", "method": "SH-SY5Y cells were differentiated with RA (10 μM) for 5 days as indicated.\nAccordingly, the effect of CBGA on the expression of MAP-2 was tested."}, "BAX": {"test_system": "BAX", "experiment": "Western blot of BAX (pro-apoptotic marker)", "format": "cell-based, human", "settings": "CBGA alone or in the presence of Aβ1-42 (5 μM), FIG. 9", "method": "(§1) For Western blot analysis, control and the treated cells were harvested and lysed in cold lysis buffer (150 mM NaCl, 50 mM Tris-HCl, 1% Triton X-100, 0.1% SDS, 0.5% Sodium deoxycholate, and 1% protease-phosphatase inhibitor mixture). The supernatants were collected and protein concentrations were determined using Bio-Rad protein assay (Bio-Rad Laboratories). Whole cell lysates (10 μg) were subjected to 10% SDS-polyacrylamide electrophoresis and transferred to nitrocellulose membrane. The membranes were blocked with 5% skim milk in TBS-T (Tris-buffered saline with 0.05% Tween-20) for 1 h at RT and blotted overnight in the presence of monoclonal anti-mouse MAP2 (1:1000, Sigma, cat. no. M1406), Tau (1:1000, Invitrogen, cat. no. AHB0042), TUJI (1:5000, BioLegend, cat. no. MMS-435P), BAX (1:1000, Cell signaling, cat. no. 2772) and rabbit polyclonal total and phosphorylated BCL (1:1000, Cell signaling, antibodies #2827 and 2870). The membranes were washed and incubated for 1 h in RT with either horseradish peroxidase (HRP)-conjugated goat anti-mouse (1:2000) or goat anti-rabbit antibodies (1:2000) (Jackson Lab). The membranes were washed and developed using chemiluminescence detection kit (Millipore, Billerica, MA, USA) on Alpha Innotech FluorChem 8800. β-Actin or Vinculin was used as a loading control. […]"}, "Tuj1": {"test_system": "Tuj1", "experiment": "Western blot of Tuj1 neuritogenesis marker", "format": "cell-based, human", "settings": "5 μM and 10 μM, FIG. 13", "method": "FIG. 13 CBGA upregulates the expression of Tuj1 neuritogenesis marker. Developmental changes in prominent intracellular marker of neurite growth, neuron-specific III β-tubulin (Tuj1) was determined using Western blot analysis. CBGA increased the expression of Tuj1 in differentiated SH-SY5Y cells. FIG. 13 also provides a histogram showing densitometric analysis of relative expression of Tuj1. β-Actin was used as a loading control. P<0.05 for CBGA 10 μM vs Control by One-Way ANOVA.\nFor Western blot analysis, control and the treated cells were harvested and lysed in cold lysis buffer (150 mM NaCl, 50 mM Tris-HCl, 1% Triton X-100, 0.1% SDS, 0.5% Sodium deoxycholate, and 1% protease-phosphatase inhibitor mixture). The supernatants were collected and protein concentrations were determined using Bio-Rad protein assay (Bio-Rad Laboratories). Whole cell lysates (10 μg) were subjected to 10% SDS-polyacrylamide electrophoresis and transferred to nitrocellulose membrane. […]"}, "[2]": {"test_system": "differentiated SH-SY5Y cells", "experiment": "Neurite length / neuritogenesis in differentiated SH-SY5Y cells", "format": "cell-based, human", "method": "FIG. 12 provides representative photomicrographs illustrating CBGA mediated changes in neurite elongation and branching in differentiated SH-SY5Y cells in a dose dependent manner. […] FIG. 12 also provides a histogram showing gradual changes in neurite length following treatment with CBGA.\nFIG. 14 Morphological characterization of CBGA, THC and CBN mediated changes in differentiated SH-SY5Y cells. SH-SY5Y cells were differentiated with RA (10 μM) for 5 days as indicated. (A) Representative confocal photomicrographs showing changes in the cellular distribution of Tuj1 in RA induced differentiated SH-SY5Y cells following treatment with CBGA, THC and CBN. (B) Histogram showing the effect of CBGA, CBN, THC on neurite length."}, "BCL2": {"test_system": "BCL2", "experiment": "Western blot of phosphorylated BCL2 (anti-apoptotic marker)", "format": "cell-based, human", "settings": "CBGA 5 μM and 10 μM on Aβ1-42 (5 μM) treated cells, FIG. 10", "method": "as §1"}, "MAP2": {"test_system": "MAP2", "experiment": "Western blot of MAP2 neuritogenesis marker", "format": "cell-based, human", "settings": "FIG. 15", "method": "FIG. 15 CBGA upregulates the expression of MAP2 neuritogenesis marker. […] Changes in prominent intracellular marker of neurite growth, microtubule-associated protein 2 (MAP2) was determined using western blot analysis. Histogram showing densitometric analysis of relative expression of MAP2. β-Actin was used as a loading control.\nas §1, with “2870).” for “2870). The membranes were washed and incubated for 1 h in RT with either horseradish peroxidase (HRP)-conjugated goat anti-mouse (1:2000) or goat anti-rabbit antibodies (1:2000) (Jackson Lab). The membranes were washed and developed using chemiluminescence detection kit (Millipore, Billerica, MA, USA) on Alpha Innotech FluorChem 8800. β-Actin or Vinculin was used as a loading control.”"}, "CB1R": {"test_system": "CB1R", "experiment": "Changes in CB1 receptor expression and translocation", "format": "cell-based", "settings": "CBGA 5 μM, 10 μM, dose-dependent; FIG. 11", "from_the_text": "FIG. 11 Changes in receptor expression."}}}
{"smiles": "CCCCCc1cc(O)c(C/C=C(\\C)CCC=C(C)C)c(O)c1C(=O)O", "note": "[CBGA, 3-[(2E)-3,7-dimethylocta-2,6-dienyl]-2,4-dihydroxy-6-pentylbenzoic acid]", "values": [{"measurement": "MAP-2 expression, corrected total cell fluorescence", "setting": "[1]; CBGA 10 μM on otherwise untreated cells", "result": "promoted upregulation of MAP-2"}, {"measurement": "neurite morphology", "setting": "[1]; CBGA alone", "result": "elongated neurites and enhanced arborization"}, {"measurement": "MAP2 expression", "setting": "[1]; CBGA treatment of Aβ1-42 exposed cells", "result": "restores MAP2 expression"}, {"measurement": "BAX expression", "setting": "BAX", "result": "attenuates BAX expression to the control levels"}, {"measurement": "TuJ1 expression, Western blot", "setting": "Tuj1", "result": "promotes upregulation of TuJ1 expression"}, {"measurement": "neurite length", "setting": "[2]; 24 hours post treatment, FIG. 14 (B)", "result": "increased neurite length significantly"}, {"measurement": "neuritogenesis (neurite length)", "setting": "[2]; dose dependent, FIG. 12", "result": "significantly increased the neuritogenesis"}, {"measurement": "BCL2 expression", "setting": "BCL2", "result": "abrogates the downregulation of BCL2"}, {"measurement": "MAP2 expression, western blot", "setting": "MAP2; CBGA 10 μM alone", "result": "increased the expression of MAP2"}, {"measurement": "MAP2 expression, western blot", "setting": "MAP2; CBGA 10 μM with Aβ", "result": "abrogates Aβ mediated downregulation of MAP2 expression"}, {"measurement": "CB1R expression and translocation", "setting": "CB1R", "result": "promotes translocation of CB1R to the Golgi apparatus"}]}
